{"source": "patent US10064858B2", "about": "“Methods and compositions for treating bacterial infections with iron chelators” (THE UNITED STATES OF AMERICA, AS REPRESENTED BY THE …, priority 2011, dated 2018)", "format_in_all_cases": "cell-based", "key": {"[1]": {"test_system": "multi-drug resistant bacterial species", "assay": "Checkerboard, synergy with rifampin (summary)", "text": "Drug interactions were initially evaluated with the “checkerboard” microdilution design, which provided a matrix of all drug combinations assayed in terms of fractions of the previously determined MIC. The checkerboard microdilution design is described in R. J. Tallarida, “Drug Synergism: Its Detection and Applications,” Journal of Pharmacology and Experimental Therapeutics, 865-872 (2001); and in R. L. White, et al., (1996), supra. FIGS. 39A and 39B show the wellplates having different concentrations of iron chelator and antibiotic, as labeled along the x-axis and y-axis.\nThe checkerboard assay was used to asses other combinations of iron chelators and antibiotics. The fractional inhibitory concentration index (FIC), which was calculated as follows: FIC=(MIC A in combination/MIC A)+(MIC B in combination/MIC B). Interaction was defined as synergistic if the FIC was <1.0, preferably <0.5, no interaction if the FIC was >1.0 and <4.0, and antagonistic if the FIC was >4.0.\nThe assay was run against the multi-drug resistant bacterial species AB 19606, AB 17978, KP ndm, PA PAO1, PA 27853, EC 35718, and EC 43888. Blank spaces indicate concentrations not tested. […] Against the species PA PAO1 and PA 27853, all the antibiotics except for Ami."}, "[2]": {"test_system": "clinical isolates of A. baumannii", "assay": "MIC for clinical isolates in RPMI (low iron) media (Table 4)", "set-up": "key to MIC of Iron Chelators: NG = no growth in table 4", "conditions": "for MIC: Acinetobacter baumannii", "procedure": "[…] […] Tests were performed in triplicate. MIC of iron chelators were determined for noscomial ESKAPE pathogens.\nFor a number of strains, the iron chelators produced no growth of bacteria (NG)."}, "[3]": {"test_system": "AB5075 a MDR-clinical isolate of A. baumannii", "assay": "Time-kill assay in CAMHB", "conditions": "for effect on CFU/ml (time-kill, FIG. 13): 2 and 6 hours; for time-kill course of CFU/mL: 24 hours (FIG. 8A)", "procedure": "Reductions in colony forming units (CFU)/mL were determined over time (time-kill assay) after exposure to VK28 and deferiprone (DFP), the two iron chelators that performed best in MIC assays when compared to controls. To better represent the iron content found in the human body, MIC and time-kill assays were also determined in minimal media and tissue culture media. Time-Kill assays were performed as previously described in G. P. Neupane et al., “In vitro time-kill activities of ciprofloxacin alone and in combination with the iron chelator deferasirox against Vibrio vulnificus,” European Journal of Clinical Microbiology and Infectious Diseases, 407-410 (2010); and R. L. White, et al., “Comparison of Three Different In Vitro Methods of Detecting synergy: Time-Kill, Checkerboard, and E test,” Journal of Antimicrobial Agents and Chemotherapy, 1914-1918 (1996). Initial inocula, for example 1×10^6 CFU/mL or 1×10^7 CFU/mL were challenged with iron chelator with and/or without an antibiotic. Cells were allowed to grow in CAMHB at 37° C. for 24 hours. Time-kill results were analyzed by determining the change in log 10 numbers of CFU/ml at 0, 6, and 24 h, compared to counts at 0 h. Antimicrobials were considered bactericidal at the lowest concentration that reduced the size of the original inoculum by >3 log 10 CFU/ml (99.9%) over each of the time periods and were considered bacteriostatic if the inoculum's size was reduced by 0 to <3 log 10 CFU/ml.\n(§1) In this example, time-kill assays were performed as described in Example 9 using Apo6619 as the iron chelator against AB5075 (MRSN959), the MDR-clinical isolate of A. baumannii. The initial inocula was 1×10^6 CFU/mL, and were challenged with 0.5×MIC, 1×MIC and 2×MIC of Apo6619. Time-kill results were analyzed by determining the change in log 10 numbers of CFU/mL at 0, 2 and 4 hours.\nas §1, with “VK28 or DFP” for “Apo6619”, “AB5075,” for “AB5075 (MRSN959),”, “either VK28 or DFP.” for “Apo6619.”, “at” for “at 0,”, “6” for “4”"}, "[4]": {"test_system": "A. baumannii AB 19606, AB 17978", "assay": "Checkerboard assay, chelator with antibiotic (FIC)", "text": "Drug interactions were initially evaluated with the “checkerboard” microdilution design, which provided a matrix of all drug combinations assayed in terms of fractions of the previously determined MIC. The checkerboard microdilution design is described in R. J. Tallarida, “Drug Synergism: Its Detection and Applications,” Journal of Pharmacology and Experimental Therapeutics, 865-872 (2001); and in R. L. White, et al., (1996), supra. FIGS. 39A and 39B show the wellplates having different concentrations of iron chelator and antibiotic, as labeled along the x-axis and y-axis. […] The checkerboard assay was used to asses other combinations of iron chelators and antibiotics. The fractional inhibitory concentration index (FIC), which was calculated as follows: FIC=(MIC A in combination/MIC A)+(MIC B in combination/MIC B). […] Blank spaces indicate concentrations not tested. […] Against the species PA PAO1 and PA 27853, all the antibiotics except for Ami."}}, "note": "Where two headings read alike, the source gives them in different places.", "data": [{"molecule": "OCCN1CCN(Cc2ccc(O)c3ncccc23)CC1", "note": "[VK28, 5-(4-(2-hydroxyethyl)piperazin-1-ylmethyl)-8-hydroxyquinoline]", "values": [{"measurement": "synergy with rifampin, checkerboard", "setting": "[1]", "value": "moderate degrees of synergy"}, {"measurement": "MIC of Iron Chelators", "setting": "[2]; AB967", "value": "NG"}, {"measurement": "MIC of Iron Chelators", "setting": "[2]; AB2828", "value": "NG"}, {"measurement": "MIC of Iron Chelators", "setting": "[2]; AB3340", "value": "NG"}, {"measurement": "MIC of Iron Chelators", "setting": "[2]; AB3560", "value": "NG"}, {"measurement": "MIC of Iron Chelators", "setting": "[2]; AB3927", "value": "NG"}, {"measurement": "MIC", "setting": "[2]; AB3638, read-out: MIC of Iron Chelators", "value": 8, "unit": "µg/mL"}, {"measurement": "MIC", "setting": "[2]; AB3785, read-out: MIC of Iron Chelators", "value": 8, "unit": "µg/mL"}, {"measurement": "MIC", "setting": "[2]; AB3806, read-out: MIC of Iron Chelators", "value": 8, "unit": "µg/mL"}, {"measurement": "MIC", "setting": "[2]; AB3917, read-out: MIC of Iron Chelators", "value": 4, "unit": "µg/mL"}, {"measurement": "MIC", "setting": "[2]; AB4025, read-out: MIC of Iron Chelators", "value": 8, "unit": "µg/mL"}, {"measurement": "MIC", "setting": "[2]; AB4026, read-out: MIC of Iron Chelators", "value": 8, "unit": "µg/mL"}, {"measurement": "MIC", "setting": "[2]; AB4027, read-out: MIC of Iron Chelators", "value": 8, "unit": "µg/mL"}, {"measurement": "MIC", "setting": "[2]; AB4052, read-out: MIC of Iron Chelators", "value": 8, "unit": "µg/mL"}, {"measurement": "MIC", "setting": "[2]; AB4269, read-out: MIC of Iron Chelators", "value": 8, "unit": "µg/mL"}, {"measurement": "MIC", "setting": "[2]; AB4448, read-out: MIC of Iron Chelators", "value": 8, "unit": "µg/mL"}, {"measurement": "MIC", "setting": "[2]; AB4456, read-out: MIC of Iron Chelators", "value": 8, "unit": "µg/mL"}, {"measurement": "MIC", "setting": "[2]; AB4490, read-out: MIC of Iron Chelators", "value": 8, "unit": "µg/mL"}, {"measurement": "MIC", "setting": "[2]; AB4498, read-out: MIC of Iron Chelators", "value": 8, "unit": "µg/mL"}, {"measurement": "MIC", "setting": "[2]; AB4795, read-out: MIC of Iron Chelators", "value": 4, "unit": "µg/mL"}, {"measurement": "MIC", "setting": "[2]; AB4857, read-out: MIC of Iron Chelators", "value": 8, "unit": "µg/mL"}, {"measurement": "MIC", "setting": "[2]; AB4878, read-out: MIC of Iron Chelators", "value": 8, "unit": "µg/mL"}, {"measurement": "MIC", "setting": "[2]; AB4932, read-out: MIC of Iron Chelators", "value": 8, "unit": "µg/mL"}, {"measurement": "MIC", "setting": "[2]; AB4957, read-out: MIC of Iron Chelators", "value": 8, "unit": "µg/mL"}, {"measurement": "MIC", "setting": "[2]; AB4991, read-out: MIC of Iron Chelators", "value": 8, "unit": "µg/mL"}, {"measurement": "MIC", "setting": "[2]; AB5001, read-out: MIC of Iron Chelators", "value": 8, "unit": "µg/mL"}, {"measurement": "MIC", "setting": "[2]; AB5075, read-out: MIC of Iron Chelators", "value": 8, "unit": "µg/mL"}, {"measurement": "MIC", "setting": "[2]; AB5197, read-out: MIC of Iron Chelators", "value": 4, "unit": "µg/mL"}, {"measurement": "MIC", "setting": "[2]; AB5256, read-out: MIC of Iron Chelators", "value": 8, "unit": "µg/mL"}, {"measurement": "MIC", "setting": "[2]; AB5674, read-out: MIC of Iron Chelators", "value": 8, "unit": "µg/mL"}, {"measurement": "MIC", "setting": "[2]; AB5711, read-out: MIC of Iron Chelators", "value": 8, "unit": "µg/mL"}, {"measurement": "effect on CFU/ml (time-kill, FIG. 13)", "setting": "[3]; 0.5 MIC", "value": "inhibitory effect on the CFU/ml"}, {"measurement": "CFU/mL at 24 hours", "setting": "[3]; 0.5 MIC, CAMHB", "value": "about 1×10^9 CFU/mL"}, {"measurement": "time-kill course of CFU/mL", "setting": "[3]; 0.5×MIC, CAMHB", "value": "initial decrease in CFU/mL at 2 and 6 hours, but rebounded"}, {"measurement": "effect on CFU/ml (time-kill, FIG. 13)", "setting": "[3]; 1×MIC", "value": "inhibitory effect on the CFU/ml"}, {"measurement": "time-kill course of CFU/mL", "setting": "[3]; 1×MIC, CAMHB", "value": "did not increase in CFU over the 24 hour period"}, {"measurement": "effect on CFU/ml (time-kill, FIG. 13)", "setting": "[3]; 2×MIC", "value": "inhibitory effect on the CFU/ml"}, {"measurement": "time-kill course of CFU/mL", "setting": "[3]; 2×MIC, CAMHB", "value": "decrease in CFU/mL after 2 hours that was sustained through the 24 hour period"}, {"measurement": "FIC", "setting": "[4]; AB 17978, in combination with Amikacin", "value": 1.25}, {"measurement": "FIC", "setting": "[4]; AB 17978, in combination with Cefotaxine", "value": 0.75}, {"measurement": "FIC", "setting": "[4]; AB 17978, in combination with Colisitin (Colistin)", "value": 0.75}, {"measurement": "FIC", "setting": "[4]; AB 17978, in combination with Doxycycline", "value": 1.25}, {"measurement": "FIC", "setting": "[4]; AB 17978, in combination with Rifampin", "value": 0.75}, {"measurement": "FIC", "setting": "[4]; AB 19606, in combination with Amikacin", "value": 1.25}, {"measurement": "FIC", "setting": "[4]; AB 19606, in combination with Cefotaxine", "value": 1.25}, {"measurement": "FIC", "setting": "[4]; AB 19606, in combination with Colisitin (Colistin)", "value": 0.75}, {"measurement": "FIC", "setting": "[4]; AB 19606, in combination with Doxycycline", "value": 2.25}, {"measurement": "FIC", "setting": "[4]; AB 19606, in combination with Rifampin", "value": 1.25}]}]}
